{"source": "patent US20250025442A1", "about": "“BCAA-Lowering Compounds for Prevention and/or Treatment of Alzheimer's Disease and Related Disorders” (Texas Tech University System, priority 2020, published 2025)", "key": {"5xFAD mice": {"tested_on": "5xFAD mice", "assay": "BT2 daily ip injection for one month in 5xFAD mice", "assay_type": "in vivo", "description": "These transgenic mice develop amyloid plaques and neuroinflammation at as early as 1.5-2 months of age^7, thus allowing the inventors to investigate the role of BCAAs in AD-related brain pathology when they are young. […] Next, the inventors examined amyloid and Tau pathology in the cortex."}, "BCKDH kinase": {"tested_on": "BCKDH kinase", "settings": "cited from earlier work"}, "plasma BCAAs": {"tested_on": "plasma BCAAs", "settings": "mice; cited from earlier work"}, "[1]": {"settings": "CD-1 mice, in vivo pharmacokinetics study; cited from earlier work"}, "[2]": {"settings": "in hepatocytes; cited from earlier work"}}}
{"compound": "O=C(O)c1sc2cc(Cl)ccc2c1Cl", "note": "[BT2, 3,6-dichlorobenzo[b]thiophene-2-carboxylic acid]", "values": [{"measurement": "increase of tyrosine hydroxylase (TH) protein level", "setting": "5xFAD mice; 5xFAD mice, p=0.07", "value": "~400", "unit": "%"}, {"measurement": "blood glucose", "setting": "5xFAD mice; BT2-treated vs vehicle-treated 5xFAD mice", "value": "markedly decrease"}, {"measurement": "Aβ-42 level", "setting": "5xFAD mice; cortex, 5xFAD mice", "value": "completely rescued"}, {"measurement": "elevated Aβ-degrading enzyme IDE", "setting": "5xFAD mice; cortex, 5xFAD mice", "value": 70, "unit": "%"}, {"measurement": "increase of DA", "setting": "5xFAD mice; cortex, BT2-treated 5xFAD mice", "value": 180, "unit": "%"}, {"measurement": "increase of DOPAC", "setting": "5xFAD mice; cortex, BT2-treated 5xFAD mice", "value": 300, "unit": "%"}, {"measurement": "GSK3β", "setting": "5xFAD mice; cortex, after BT2 treatment", "value": "significantly reduced"}, {"measurement": "BACE1 (β-secretase)", "setting": "5xFAD mice; hippocampus, 5xFAD mice", "value": "markedly lowered"}, {"measurement": "NE level", "setting": "5xFAD mice; hippocampus, 5xFAD mice", "value": "fully restored"}, {"measurement": "mRNA of NF-κB (inflammation)", "setting": "5xFAD mice; hippocampus, 5xFAD mice", "value": "decreased"}, {"measurement": "mRNA of PERK (ER stress)", "setting": "5xFAD mice; hippocampus, 5xFAD mice", "value": "decreased"}, {"measurement": "higher 5-HT", "setting": "5xFAD mice; hippocampus, after BT2 treatment, p<0.05", "value": 50, "unit": "%"}, {"measurement": "higher DA", "setting": "5xFAD mice; hippocampus, after BT2 treatment, p=0.08", "value": 40, "unit": "%"}, {"measurement": "inhibit BCKDH kinase", "setting": "BCKDH kinase", "value": "effectively inhibit"}, {"measurement": "plasma BCAAs", "setting": "plasma BCAAs", "value": "lowering plasma BCAAs"}]}
{"compound": "(S)-α-chloro-phenylpropionic acid [(S)-CPP]", "values": [{"measurement": "inhibit BCKDH kinase", "setting": "BCKDH kinase", "value": "effectively inhibit"}, {"measurement": "clearance rate", "setting": "[1]", "value": 0.113, "unit": "mL/min"}, {"measurement": "plasma BCAAs", "setting": "plasma BCAAs", "value": "lowering plasma BCAAs"}, {"measurement": "Half-life", "setting": "[2]", "value": "~7", "unit": "h"}]}
